Measured values: US12454530B2, “Amido cyclohexane acid derivatives as LPA receptor inhibitors” (CHIESI FARMACEUTICI S.P.A., priority 2020, dated 2025)

Tests used:
[1] = Permeability on Caco-2 cells monolayers; format: in vitro ADME; conditions: human, with Elacridar 10 µM (PgP inhibitor), Papp A>B with PgP inhibitor Elacridar, 10 μM compound, read-out: Passive Permeability
Experimental: Even more advantageously, the compounds of formula (I) of the present invention are also endowed with a good permeability profile that, in its turn, can ensure a suitable bioavailability for an oral administration. The permeability was assessed in human Caco 2 cell line, an in vitro model that mimic human gastrointestinal barrier and so useful to predic oral absorption.
The permeability of the compounds of the present invention was evaluated performing the assay on Caco-2 cells monolayers (human colon adenocarcinoma immortalized cell) by measuring the transport of compound (absorption and secretion) in both directions: apical to basolateral direction (A>B) and basolateral to apical (B>A) with and without PgP inhibitor (Elacridar).
The cells, purched from ReadyCell in 96 well format (Cod. KRECE-CCR50), were cultured by the supplier for 21 day on transwell supports in DMEM 1 g/L glucose culture medium supplemented with Fetal Bovin Sierum (10%), Glutamine 200 mM (1%) and Penicillin 10000 U/ml-10 mg/ml Streptomycin (1%).
On day 21 of colture, cell monolayers integrity was verified by measuring the trans-epithelial electric resistance (TEER) using the EVOM equipment (Endohm, WPI, Germany) and studying the apparent permeability (Papp) of reference compounds (Sulpiride and Metoprolol). Furthermore, as a control, the Talinolol 10 uM (Pgp efflux substrate) with and without Elacridar in both directions was used.
The sample solution was prepared dissolving test compound in DMSO at the concentration of 10 mM and then diluted in the Assay Buffer (Hank's Balance Salt Solution) warmed at 37° C. before use, to give the 10 μM Compound working solution with and without 10 μM Elacridar. These working solutions were added to donor compartment (apical for A>B direction and basolateral for B>A direction) and Assay Buffer (Hank's Balance Salt Solution) to the receiver compartment (basolateral for A>B direction and apical for B>A direction). The plate was incubated at 37° C. for 120 min, all incubation were conducted in triplicates. At the end of incubation, samples from donor and receiver compartments were collected for HPLC-MS/MS analyses.
The permeability coefficients (Papp) in both directions: apical to basolateral (A>B) and basolateral to apical (B>A) with and without PgP inhibitor (Elacridar) was calculated in nm/sec, using the following equation:
[formula] • where: • Cr=measured concentration in the receiver well at the time t (expressed as IS ratio) • Vr=volume of the receiver well (ml) • t=time (sec) • A=membrane surface area (cm^2) • C0=initial donor concentration • Passive Papp is considered Papp A>B with PgP inhibitor Elacridar.

[2] = target: human recombinant LPA1 expressed in CHO cells (Homo sapiens (Human), UniProt Q92633); experiment: LPA1 antagonist FLIPR calcium assay in CHO-hLPA1 cells; format: cell-based; conditions: range of activity; CHO-hLPA1, LPA EC80, Ca2+ mobilization; read-out: LPA1 IC50
Chain of human recombinant LPA1 expressed in CHO cells (Q92633 whole entry): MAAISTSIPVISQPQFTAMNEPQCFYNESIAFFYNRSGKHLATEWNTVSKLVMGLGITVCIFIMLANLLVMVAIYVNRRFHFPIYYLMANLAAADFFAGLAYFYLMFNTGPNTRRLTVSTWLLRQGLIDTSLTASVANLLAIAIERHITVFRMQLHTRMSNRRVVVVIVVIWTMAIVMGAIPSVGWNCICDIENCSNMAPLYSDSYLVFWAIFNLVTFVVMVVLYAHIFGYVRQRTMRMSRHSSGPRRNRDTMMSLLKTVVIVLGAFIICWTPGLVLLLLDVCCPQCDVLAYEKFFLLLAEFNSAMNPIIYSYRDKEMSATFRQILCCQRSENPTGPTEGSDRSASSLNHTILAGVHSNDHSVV
Outline: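 CHO cells expressing human LPA1 loaded with Cal-520 AM (5 μM, with 2.5 mM probenecid) 30 min at 37 °C. Baseline-subtracted peak fluorescence on FLIPR converted to % inhibition; pIC50 from four-parameter logistic fit.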

BSEP = BSEP (Homo sapiens (Human), UniProt O95342); experiment: BSEP inhibition: biliary clearance of Taurocolic Acid in sandwich-cultured human hepatocytes; format: in vitro ADME; conditions: sandwich-cultured cryopreserved human hepatocytes, probe Taurocolic Acid (TCA); 50 μM test compound, 10 μM TCA, human hepatocytes sandwich configuration
Chain of BSEP (O95342 whole entry): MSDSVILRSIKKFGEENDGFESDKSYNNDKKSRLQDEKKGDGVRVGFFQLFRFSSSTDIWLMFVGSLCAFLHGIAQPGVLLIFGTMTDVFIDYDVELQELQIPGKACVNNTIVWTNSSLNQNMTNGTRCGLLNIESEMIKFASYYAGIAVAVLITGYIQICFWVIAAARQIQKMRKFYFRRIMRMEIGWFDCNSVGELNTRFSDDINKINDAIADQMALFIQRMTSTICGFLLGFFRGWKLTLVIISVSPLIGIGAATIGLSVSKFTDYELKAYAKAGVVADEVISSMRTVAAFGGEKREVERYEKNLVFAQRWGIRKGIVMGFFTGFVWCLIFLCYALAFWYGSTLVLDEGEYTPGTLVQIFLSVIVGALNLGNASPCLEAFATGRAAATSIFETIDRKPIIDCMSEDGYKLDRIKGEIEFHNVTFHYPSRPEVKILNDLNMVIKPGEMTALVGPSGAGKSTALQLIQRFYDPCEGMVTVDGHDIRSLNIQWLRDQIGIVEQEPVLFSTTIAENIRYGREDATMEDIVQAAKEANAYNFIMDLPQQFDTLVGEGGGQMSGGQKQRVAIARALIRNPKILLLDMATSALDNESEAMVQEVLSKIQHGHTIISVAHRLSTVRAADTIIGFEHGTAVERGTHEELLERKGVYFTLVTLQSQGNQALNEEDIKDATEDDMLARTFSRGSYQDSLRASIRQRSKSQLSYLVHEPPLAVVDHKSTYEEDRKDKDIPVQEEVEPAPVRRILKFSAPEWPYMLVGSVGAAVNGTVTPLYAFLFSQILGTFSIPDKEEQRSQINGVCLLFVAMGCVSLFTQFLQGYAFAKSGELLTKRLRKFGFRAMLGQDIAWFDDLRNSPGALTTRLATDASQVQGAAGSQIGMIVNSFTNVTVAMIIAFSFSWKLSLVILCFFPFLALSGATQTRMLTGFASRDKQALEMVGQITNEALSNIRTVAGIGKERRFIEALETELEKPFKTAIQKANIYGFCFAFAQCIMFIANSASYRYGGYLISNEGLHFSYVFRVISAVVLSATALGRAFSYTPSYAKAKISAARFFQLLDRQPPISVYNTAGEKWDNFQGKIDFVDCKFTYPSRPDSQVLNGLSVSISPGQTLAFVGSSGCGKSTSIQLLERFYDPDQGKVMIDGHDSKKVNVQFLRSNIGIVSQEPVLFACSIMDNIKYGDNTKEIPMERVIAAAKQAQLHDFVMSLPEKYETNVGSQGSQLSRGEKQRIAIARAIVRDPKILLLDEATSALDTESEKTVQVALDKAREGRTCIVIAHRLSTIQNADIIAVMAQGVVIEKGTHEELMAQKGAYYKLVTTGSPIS
Outline: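 Cryopreserved human hepatocytes were sandwich-cultured between collagen layers for 5 days, then incubated for 10 min at 37 °C in HBSS+ with 10 μM taurocholic acid, with or without 50 μM test compound. Bile content was released with Ca2+/Mg2+-free HBSS and quantified by HPLC-MS/MS. Inhibition is the percent reduction in TCA biliary clearance.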

Compound | Papp at 120 min, 10 µM [1] | IC50 [2] | inhibition at 10 min, 50 μM (BSEP)
Cc1nc(-c2onc(C)c2NC(=O)O[C@H](C)C2CCCC2)ccc1NC(=O)[C@H]1CCCC[C@@H]1C(=O)O [Example 26, (1S,2S)-2-((6-(4-((((R)-1-cyclopentylethoxy)carbonyl)amino)-3-methylisoxazol-5-y1)-2-methylpyridin-3-yl)carbamoy1)cyclohexane-1-carboxylic acid] | ≥ 1.5 ×10⁻⁶ cm/s | < 50 nM | ≤ 50%
Cc1noc(-c2ccc(NC(=O)[C@H]3CCCC[C@@H]3C(=O)O)cn2)c1NC(=O)O[C@H](C)c1ccccc1F [Example 34, (1S,2S)-2-((6-(4-((((R)-1-(2-fluorophenyl)ethoxy)carbonyl)amino)-3-methylisoxazol-5-yl)pyridin-3-yl)carbamoyl)cyclohexane-1-carboxylic acid] | ≥ 1.5 ×10⁻⁶ cm/s | < 50 nM | ≤ 50%
Cc1noc(-c2ccc(NC(=O)[C@H]3CCCC[C@@H]3C(=O)O)cn2)c1NC(=O)OCc1ccccc1Cl [Example 35, (1S,2S)-2-((6-(4-((((2-chlorobenzyl)oxy)carbonyl)amino)-3-methylisoxazol-5-yl)pyridin-3-yl)carbamoyl)cyclohexane-1-carboxylic acid] | ≥ 1.5 ×10⁻⁶ cm/s | 50 to 250 nM | ≤ 50%
Cc1noc(-c2ccc(NC(=O)[C@H]3CCCC[C@@H]3C(=O)O)cn2)c1NC(=O)O[C@H](C)c1ccccc1C(F)(F)F [Example 36, (1S,2S)-2-((6-(3-methyl-4-((((R)-1-(2-(trifluoromethyl)phenyl)ethoxy)carbonyl)amino)isoxazol-5-yl)pyridin-3-yl)carbamoyl)cyclohexane-1-carboxylic acid] | ≥ 1.5 ×10⁻⁶ cm/s | 50 to 250 nM | ≤ 50%

Further lines, with some results ahead:

Papp at 120 min, 10 µM [1] | IC50 [2] | Compound | inhibition at 10 min, 50 μM (BSEP)
≥ 1.5 ×10⁻⁶ cm/s | 50 to 250 nM | COc1ccccc1[C@@H](C)OC(=O)Nc1c(C)noc1-c1ccc(NC(=O)[C@H]2CCCC[C@@H]2C(=O)O)c(C)n1 [Example 38, (1S,2S)-2-((6-(4-((((R)-1-(2-methoxyphenyl)ethoxy)carbonyl)amino)-3-methylisoxazol-5-yl)-2-methylpyridin-3-yl)carbamoyl)cyclohexane-1-carboxylic acid] | ≤ 50%
≥ 1.5 ×10⁻⁶ cm/s | 50 to 250 nM | Cc1nc(-c2nnn(C)c2NC(=O)O[C@H](C)C2CCCC2)ccc1NC(=O)[C@H]1CCCC[C@@H]1C(=O)O [Example 46, (1S,2S)-2-((6-(5-((((R)-1-cyclopentylethoxy)carbonyl)amino)-1-methyl-1H-1,2,3-triazol-4-yl)-2-methylpyridin-3-yl)carbamoyl)cyclohexane-1-carboxylic acid] | ≤ 50%
≥ 1.5 ×10⁻⁶ cm/s | 50 to 250 nM | Cc1nc(-c2cnn(C)c2NC(=O)O[C@H](C)c2ccccc2F)ccc1NC(=O)[C@H]1CCCC[C@@H]1C(=O)O [Example 50, (1S,2S)-2-((6-(5-((((R)-1-(2-fluorophenyl)ethoxy)carbonyl)amino)-1-methyl-1H-pyrazol-4-yl)-2-methylpyridin-3-yl)carbamoyl)cyclohexane-1-carboxylic acid] | ≤ 50%
